Experimental data from patent US10280447B2, “Substituted imidazo[1,2-A]pyrazines tethered to energy acceptors” (PROMEGA CORPORATION, priority 2016, dated 2019).

System: NanoLuc® enzyme and NanoLuc-Halotag fusion protein enzyme
Assay: Spectral profile of the coelenterazine analogue/luciferase reaction (Tecan-M1000, 3 nm increments)
Type: biochemical, Oplophorus gracilirostris
Details: NanoGlo® buffer
Procedure: FIGS. 2A-2D show the spectral profiles of varying concentrations of TAK-0043 and enzyme in NanoGlo® buffer. […] TAK-0043 was tested as a potential coelenterazine analogue capable of shifting the emission spectrum in a coelenterazine/luciferase reaction. A dilution series of purified NanoLuc® enzyme (Promega E499a) and NanoLuc-Halotag fusion protein enzyme was prepared in OptiMEM+0.1% FBS starting 2 μM. 50 ul of the 2 μM enzyme dilutions were combined with 50 μl of 2 μM and 20 μM TAK-0043 in NanoGlo® buffer in triplicate. These samples were immediately read on the Tecan-M1000 using 3 nm increments to obtain spectral profiles. Another spectral measurement was completed by combining 50 μl of 6.6 μM NanoLuc® enzyme and NanoLuc-Halotag fusion protein enzyme in OptiMEM+0.1% FBS with 50 μl of 2 μM TAK-0043 in NanoGlo® buffer in triplicate. This sample was also read on the Tecan M-1000 using […] increments.

peak for coelenterazine emission at 460 nm (TAK-0043 with NanoLuc® and NanoLuc-HaloTag fusion enzyme): nearly invisible
emitted photons shifted to NCT dye emission (all concentrations of TAK-0043 (1 or 10 uM) and enzyme (1 or 3.3 uM) used): > 95%
emission maximum (all concentrations of TAK-0043 and enzyme used): 618 nm
Structure (SMILES): O=C(NCCCCCCOc1cccc(Cc2nc3c(Cc4ccccc4)[nH]c(-c4ccccc4)cn-3c2=O)c1)c1ccc(C(=O)O)c(C2=c3cc4c5c(c3Oc3c2cc2c6c3CCCN6CCCC2)CCC[N+]=5CCCC4)c1 [TAK-0043]
